Patent US20240294551A1 (AMGEN INC., priority 2022, published 2024)
Where two headings read alike, the source gives them in different places.

Experiments:
[1] = target: His-tagged KRAS G12D protein (Homo sapiens (Human), UniProt P01116, G12D); assay: KRAS G12D TR-FRET Assay; format: binding
In short: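 His-tagged KRAS G12D (diluted to 20 nM in pH 7.4 HEPES buffer with 10 mM MgCl2 and 10 μM GDP) was preincubated with titrated compound for 30 min at room temperature. Biotinylated KRPep-2d peptide (diluted to 20 nM) was then added for 1 h, and displacement was monitored by TR-FRET.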

[2] = target: GDP-bound KRAS protein (aa 1-169), containing both G12D and C118A amino acid substitutions (Homo sapiens (Human), UniProt P01116, C118A/G12D); assay: KRAS G12D Coupled Nucleotide Exchange Assay; format: biochemical
Sequence of GDP-bound KRAS protein (aa 1-169), containing both G12D and C118A amino acid substitutions (P01116 other isoform, or with tags, fused parts or gaps G12D/C118A): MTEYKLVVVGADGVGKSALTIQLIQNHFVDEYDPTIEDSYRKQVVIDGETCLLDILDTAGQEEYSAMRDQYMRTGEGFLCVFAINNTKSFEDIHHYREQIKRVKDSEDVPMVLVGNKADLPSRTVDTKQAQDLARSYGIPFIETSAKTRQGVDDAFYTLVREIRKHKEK

[3] = system: Phosphorylation of ERK1/2 in AsPC-1 cells; assay: Phospho-ERK1/2 MSD Assay; format: cell-based, human; settings: Homo sapiens, ASPC1, 2 h
In short: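 Read-out: MSD electrochemiluminescent detection of phosphorylated ERK1/2 in whole-cell lysates, fitted to a 4-parameter logistic curve for IC50. Prior to lysis, AsPC-1 cells (25,000 per well) received a 2 h compound dose-response at 37 °C.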

AsPC-1 cells = assay: AsPC-1 CTG Assay (CellTiter-Glo cell viability); format: cell-based, human; settings: Homo sapiens, ASPC1, 72 h, first value of the cell, read-out: G12D/C/V Cell Proliferation CTG (72 h) AsPC-1
In short: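 Human pancreatic AsPC-1 or colon SW620 cells in RPMI 1640 with 10% FBS, seeded overnight, then exposed to serially diluted compound for 72 h at 37 °C. CellTiter-Glo luminescence normalized to DMSO control; IC50 from a 4-parameter logistic model.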

MIA PaCa-2 cells = assay: MIA PaCa-2 CTG Assay (CellTiter-Glo cell viability); format: cell-based, human; settings: Homo sapiens, second value of the cell
In short: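 Human pancreatic carcinoma cells in RPMI 1640 with 10% FBS, seeded at 1.67E+04 cells/mL and left overnight, were treated with serially diluted compound for 72 h at 37° C, 5% CO2. Viability was read by CellTiter-Glo luminescence normalized to DMSO; IC50 came from a 4-parameter logistic fit.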

[4] = TR-FRET, read-out: KRAS G12D Binding
[5] = 2 hours compound pre-incubation, read-out: KRAS G12D Coupled Exchange
[6] = read-out: 2 h p-ERK (AsPC-1 cells)
[7] = MIA PaCa-2 cells (G12C), 72 h, read-out: G12D/C/V Cell Proliferation CTG (72 h) MIA PaCa-2
[8] = read-out: KRAS G12D Binding IC50
[9] = read-out: KRAS G12D Coupled Exchange IC50
[10] = read-out: 2 h p-ERK (AsPC-1 cells), IC50
[11] = Mia PaCa-2, 72 h, read-out: G12D/C/V Cell Proliferation CTG (72 h) Mia PaCa-2

Sequence of His-tagged KRAS G12D protein (P01116 other isoform, or with tags, fused parts or gaps G12D): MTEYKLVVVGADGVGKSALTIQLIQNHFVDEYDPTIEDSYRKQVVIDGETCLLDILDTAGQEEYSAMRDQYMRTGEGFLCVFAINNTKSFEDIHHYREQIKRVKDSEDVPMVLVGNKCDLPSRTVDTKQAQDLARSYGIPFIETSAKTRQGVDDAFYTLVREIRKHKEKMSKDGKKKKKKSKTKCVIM

Row | IC50 [1, 4] [nM] | IC50 [2, 5] [nM] | IC50 [3, 6] [nM] | IC50 (AsPC-1 cells; AsPC-1 cells (G12D), 72 h) [nM] | IC50 (MIA PaCa-2 cells; [7]) [nM] | IC50 [1, 8] [nM] | IC50 [2, 9] [nM] | IC50 [3, 10] [nM] | IC50 (AsPC-1 cells; AsPC-1, 72 h) [nM] | IC50 (MIA PaCa-2 cells; [11]) [nM] | SMILES
1 | 4 | 2 | 1.4 | 12 | 3 | – | – | – | – | – | O[C@]12CCOCCc3c(Cl)cc4[nH]ncc4c3-c3ncc4c(nc(OC[C@@]56CCCN5C[C@H](F)C6)nc4c3F)N3CCC[C@@](C3)(C1)C2 [Example 397, (1S,3R)-10-chloro-32-fluoro-24-(((2R,7aS)-2-fluorotetrahydro-1H-pyrrolo[1,2-a]pyrrol-7a(5H)-yl)methoxy)-6-oxa-13,14,19,23,25,27-hexaazaheptacyclo[25.3.1.1~1,3~.1~18,22~.0~9,17~.0~12,16~.0~21,26~]tritriaconta-9,11,14,16,18(32),19,21,23,25-nonaen-3-ol]
2 | 4 | 2 | 36.3 | 265 | 183 | – | – | – | – | – | Fc1c2ncc3c(nc(OC[C@@]45CCCN4C[C@H](F)C5)nc13)N1CCC[C@@H](Cc3nnc(o3)CCc3c(Cl)cc4[nH]ncc4c3-2)C1 [Example 391, (18S)-9-chloro-31-fluoro-25-(((2R,7aS)-2-fluorotetrahydro-1H-pyrrolo[1,2-a]pyrrol-7a(5H)-yl)methoxy)-33-oxa-5,6,14,15,22,24,26,30-octaazaheptacyclo[25.3.1.1~13,16~.1~18,22~.0~2,10~.0~3,7~.0~23,28~]tritriaconta-1(31),2,4,7,9,13,15,23,25,27,29-undecaene]
3 | – | – | – | – | – | 7 | 2 | 38 | 860 | 300 | Cc1cc2[nH]ncc2c2c1CCCC(=O)OCC1CCCN(C1)c1nc(OC[C@@]34CCCN3C[C@H](F)C4)nc3c(F)c-2ncc13 (stereo partly drawn) [Example 104]
4 | – | – | – | – | – | 4 | 2 | 23 | 455 | 49 | O=C1OCCc2c(Cl)cc3[nH]ncc3c2-c2ncc3c(nc(OC[C@@]45CCCN4C[C@H](F)C5)nc3c2F)N2CCO[C@@H](CO1)C2 [Example 217]
5 | – | – | – | – | – | 6 | 5 | 40.2 | 270 | 28 | Fc1c2ncc3c(nc(OC[C@@]45CCCN4C[C@H](F)C5)nc13)N1CCO[C@]3(C1)C[C@@H](C3)OCCCCc1c(Cl)cc3[nH]ncc3c1-2 (single isomer, unassigned) [Example 261]
6 | – | – | – | – | – | 4 | 2 | 3.1 | 36 | 32 | C[C@@]12CCCCN(C1)c1nc(OC[C@@]34CCCN3C[C@H](F)C4)nc3c(F)c(ncc13)-c1c(c(Cl)cc3[nH]ncc13)CCCOC(=O)N2 [Example 290, (26R)-18-chloro-32-fluoro-4-(((2R,7aS)-2-fluorotetrahydro-1H-pyrrolo[1,2-a]pyrrol-7a(5H)-yl)methoxy)-26-methyl-23-oxa-1,3,5,9,14,15,25-heptaazahexacyclo[24.4.1.1~6,10~.0~2,7~.0~11,19~.0~12,16~]dotriaconta-2,4,6(32),7,9,11,13,16,18-nonaen-24-one]
7 | – | – | – | – | – | 12 | 4 | 101 | 410 | 107 | C[C@@]12COCCN(C1)c1nc(OC[C@@]34CCCN3C[C@@H](F)C4)nc3c(F)c(ncc13)-c1c(c(Cl)cc3[nH]ncc13)CCCOC(=O)O2 [Example 359, (26S)-18-chloro-32-fluoro-4-(((25,7aS)-2-fluorotetrahydro-1H-pyrrolo[1,2-a]pyrrol-7a(5H)-yl)methoxy)-26-methyl-23,25,28-trioxa-1,3,5,9,14,15-hexaazahexacyclo[24.4.1.1~6,10~.0~2,7~.0~11,19~.0~12,16~]dotriaconta-2,4,6(32),7,9,11,13,16,18-nonaen-24-one]
8 | – | – | – | – | – | 4 | 4 | 12.6 | 150 | 53 | Fc1c2ncc3c(nc(OC[C@@]45CCCN4C[C@H](F)C5)nc13)N1CCCC[C@H](C1)c1cnn(n1)CCCc1c(Cl)cc3[nH]ncc3c1-2 [Example 296, (1R)-10-chloro-33-fluoro-24-(((2R,7aS)-2-fluorotetrahydro-1H-pyrrolo[1,2-a]pyrrol-7a(5H)-yl)methoxy)-4,5,13,14,19,23,25,27,34-nonaazaheptacyclo[25.4.1.1~2,5~.1~18,22~.0~9,17~.0~12,16~.0~21,26~]tetratriaconta-2(34),3,9,11,14,16,18(33),19,21,23,25-undecaene]
9 | – | – | – | – | – | 4 | 2 | 20 | 128 | 54 | CN1[C@H](COc2nc3c4cnc(c(F)c4n2)-c2c(c(Cl)cc4[nH]ncc24)CCCOC(=O)O[C@@H]2COCCN3C2)C[C@@H]2C[C@@H]21 [Example 330, (26S)-18-chloro-32-fluoro-4-(((1S,3S,5S)-2-methyl-2-azabicyclo[3.1.0]hexan-3-yl)methoxy)-23,25,28-trioxa-1,3,5,9,14,15-hexaazahexacyclo[24.4.1.1~6,10~.0~2,7~.0~11,19~.0~12,16~]dotriaconta-2,4,6,8,10(32),11,13,16,18-nonaen-24-one]
10 | – | – | – | – | – | 5 | 4 | 83 | 650 | 100 | Fc1c2ncc3c(nc(OC[C@@]45CCCN4C[C@H](F)C5)nc13)N1CCCO[C@@H](COCCCCc3c(Cl)cc4[nH]ncc4c3-2)C1 [Example 140]
11 | – | – | – | – | – | 7 | 5 | 77.8 | 412 | 130 | Cc1cc2[nH]ncc2c2c1[C@H]1C[C@H]1CCOC[C@H]1CN(CCO1)c1nc(OC[C@@]34CCCN3C[C@H](F)C4)nc3c(F)c-2ncc13 (single isomer, unassigned) [Example 226]
12 | – | – | – | – | – | 4 | 3 | 17.7 | 61 | 134 | CN(C)CC1(COc2nc3c4cc(F)c(c(F)c4n2)-c2c(c(Cl)cc4[nH]ncc24)CCCOC(=O)O[C@@H]2COCCN3C2)CC1 [Example 305, p-(26S)-18-chloro-4-((1-((dimethylamino)methyl)cyclopropyl)methoxy)-9,32-difluoro-23,25,28-trioxa-1,3,5,14,15-pentaazahexacyclo[24.4.1.1~6,10~.0~2,7~.0~11,19~.0~12,16~]dotriaconta-2,4,6,8,10(32),11,13,16,18-nonaen-24-one]
13 | – | – | – | – | – | 2 | 1 | 10 | 160 | 60 | Cc1cc2[nH]ncc2c2c1CCOC(=O)OC[C@@H]1CCCN(C1)c1nc(OC[C@@]34CCCN3C[C@H](F)C4)nc3c(F)c-2ncc13 [Example 126, (17R)-30-Fluoro-24-(((2R,7aS)-2-fluorotetrahydro-1H-pyrrolo[1,2-a]pyrrol-7a(5H)-yl)methoxy)-9-methyl-13,15-dioxa-5,6,21,23,25,29-hexaazahexacyclo[24.3.1.1˜17,21˜.0˜2,10˜.0˜3,7˜.0˜22,27˜]hentriaconta-1(30),2,4,7,9,22,24,26,28-nonaen-14-one bis(2,2,2-trifluoroacetate)]
14 | – | – | – | – | – | 4 | 2 | 10 | 155 | 75 | O=C1OCCCc2c(Cl)cc3[nH]ncc3c2-c2cc3nc(OC[C@@]45CCCN4C[C@H](F)C5)nc(c3cn2)N2CCOC[C@H](C2)O1 [Example 303, (26S)-18-chloro-4-(((2R,7aS)-2-fluorotetrahydro-1H-pyrrolo[1,2-a]pyrrol-7a(5H)-yl)methoxy)-23,25,28-trioxa-1,3,5,9,14,15-hexaazahexacyclo[24.4.1.1~6,10~.0~2,7~.0~11,19~.0~12,16~]dotriaconta-2,4,6,8,10(32),11,13,16,18-nonaen-24-one]
15 | – | – | – | – | – | 3 | 2 | 9.4 | 287 | 52 | O=C1OCCc2c(Cl)cc3[nH]ncc3c2-c2ncc3c(nc(OC[C@@]45CCCN4C[C@H](F)C5)nc3c2F)N2CCCCC(CO1)C2 (stereo partly drawn) [Example 222]
